Test results taken from patent US20110110916A1, “METHODS FOR TREATING AND/OR PREVENTING CARDIOMYOPATHIES BY ERK OR JNK INHIBITION” (priority 2008, published 2011).
Entries after “also recorded” stand apart in the source; their conditions may differ.

Experiments:
[1] = test system: hearts from Lmna^H222P/H222P mice; assay: Quantitative real-time RT-PCR of mRNAs in hearts of treated mice; type: in vivo, mouse; settings: for expression of Colla1, Colla2 and Fn1 / expression of Mlc-2a, NppA and NppB mRNAs: 20 weeks of age, 3 mg/kg/day from 16 to 20 weeks
Source text: Total RNA was extracted using the Rneasy isolation kit (Qiagen) as previously described (96). cDNA was synthesized as previously described (96) using Omniscript Reverse Transcriptase (Qiagen) on total cellular RNA. For each replicate in each experiment, RNA from tissue samples of different animals was used. Primers were designed that correspond to mouse RNA sequences using Primer3 (http://frodo.wi.mit.edu/cgi-biniprimer3/primer3_www.cgi). The real-time RT-PCR reaction contained iQ SYBR green super mix (Bio-Rad), 200 nM of each primer and 0.2 μl of template in a 25 μl reaction volume. Amplification was carried out using appropriate primers and the MyiQ Single-Color Real-Time PCR Detection System (Bio-Rad) with an initial denaturation at 95° C. for 2 min followed by 50 cycles at 95° C. for 30 s and 62° C. for 30 s. Relative levels of mRNA expression were calculated using the CT method (67). Individual expression values were normalized by comparison with Gapdh mRNA.
Real-time reverse transcription-PCR (RT-PCR) was used to quantify tissue RNA levels. Total RNA was extracted from cardiac ventricles of mice using the Rneasy isolation kit (Qiagen) as previously described. cDNA was synthesized using Superscript first strand synthesis system according to the manufacturer's instructions (Invitrogen) on total RNA. For each replicate in each experiment, RNA from tissue samples of different animals was used. Primers were designed correspond to mouse RNA sequences using Primer3 (http://frodo.wi.mit.edu/cgi-bin/primer3/primer3_www.cgi) for Nppa (forward 5′-[…]-3′ [SEQ ID NO: 4], reverse 5′-[…]-3′ [SEQ ID NO: 5]), Nppb (forward 5′-[…]-3′ [SEQ ID NO: 6], reverse 5′-[…]-3′ [SEQ ID NO: 7]), Mlc-2a (forward 5′-[…]-3′ [SEQ ID NO: 8], reverse 5′-[…]-3′ [SEQ ID NO: 9]), Colla1 (forward 5′-[…]-3′ [SEQ ID NO: 10], reverse 5′-[…]-3′ [SEQ ID NO: 11]), Colla2 (forward 5′-[…]-3′ [SEQ ID NO: 12], reverse 5′-[…]-3′ [SEQ ID NO: 13]) and Fn1 (forward 5′-[…]-3′ [SEQ ID NO: 14], reverse 5′-[…]-3′ [SEQ ID NO: 15]). The real-time RT-PCR reaction contained iQ SYBR green super mix (Bio-Rad), 200 nM of each primer, and 0.2 μl of template in a 25 μl reaction volume. Amplification was carried out using the MyiQ Single-Color Real-Time PCR Detection System (Bio-Rad) with an initial denaturation at 95° C. for […] followed by 50 cycles at 95° C. for 30 s and 62° C. for 30 s. Relative levels of mRNA expression were calculated using the ΔΔCT method (2). Individual expression values were normalized by comparison with Gapdh mRNA (forward 5′-[…]-3′ [SEQ ID NO: 16], reverse 5′-[…]-3′ [SEQ ID NO: 17]).

Lmna^H222P/H222P mice = assay: Transthoracic echocardiography at 20 weeks of age, PD98059 or SP600125 from 16 to 20 weeks; type: in vivo, mouse; settings: for LVESD compared to DMSO-treated mice: 3 mg/kg/day; for FS and EF: after 4 weeks of treatment; for HR: heart rate; for further deterioration in cardiac function: treated from 16 to 20 weeks of age
Experimental: Using the methods described in Example 2, we treated Lmna^H222P/H222P mice with PD98059 alone or SP600125 alone, starting at 16 weeks of age, when ejection fraction has already deteriorated and left ventricular end diastolic diameter is increased, until 20 weeks of age.
SP600125, an anthrapyrazolone inhibitor of JNK, and PD98059, a 2′-amino-3′-methoxyflavone MAPK/ERK kinase (MEK) ½ inhibitor, (Calbiochem) were dissolved in dimethyl sulfoxide (DMSO) (Sigma) at a concentration of 1 mg/ml and were delivered to a dose of 3 mg/kg/day for 5 days a week. The placebo control consisted of DMSO alone and was delivered in the same volume. Placebo and inhibitors were administered by intraperitoneal injection using a 27⅝-gauge syringe. Treatments were started when mice were 16 weeks of age and continued until 20 weeks of age or when the mice were 19 weeks and continued until 24 weeks of age.
At 20 weeks or 24 weeks of age, mice were anesthetized with 1.5% isoflurane in O2 and placed on a heating pad (37° C.). Cardiac function was assessed by echocardiography with a Visualsonics Vevo 770 ultrasound with a 30 MHz transducer applied to the chest wall. Cardiac ventricular dimensions and fractional shortening (FS) were measured in 2D mode and M-mode three times in a modified short axis view for the number of animals indicated. A “blinded” echocardiographer (J.S.), unaware of the genotype or treatment, performed the examinations.
We assigned male Lmna^H222P/H222P mice 16 weeks of age to 3 different treatment arms (placebo DMSO, n=28; MEK1/2 inhibitor PD98059, n=22; JNK inhibitor SP600125, n=29) and examined parameters of cardiac structure and function at 20 weeks of age, after 4 weeks treatment. […] Lmna^H222P/H222P mice also have depressed cardiac contractility, with fractional shortening (FS) decreased by 20%-40% compared to Lmna^+/+ mice (13,15). Myocardial fibrosis occurs in Lmna^H222P/H222P mice at 16 weeks of age (16). At 20 weeks, LVEDD and LVESD increase further in Lmna^H222P/H222P mice and cardiac contractility also progressively deteriorates (16). During the 4-week treatment protocol, 6 mice in the DMSO group, 3 in the PD98059 group and 3 in the SP600125 group died prior to reaching 20 weeks of age for evaluation.

[2] = pilot study, 24 weeks, treated from 19 weeks
[3] = 20 weeks of age, 3 mg/kg/day i.p. from 16 to 20 weeks
[4] = 20 weeks of age, 3 mg/kg/day i.p. from 16 to 20 weeks, means ± SEM
[5] = Lmna^H222P/H222P mice at 20 weeks of age, treated from 16 to 20 weeks, means ± SEM
[6] = Lmna^H222P/H222P mice at 20 weeks of age, treated from 16 to 20 weeks, means ± standard deviations
[7] = Lmna^H222P/H222P mice at 20 weeks of age, treated from 16 to 20 weeks

SMILES: O=C1c2ccccc2-c2n[nH]c3cccc1c23 [SP600125, anthra[1,9-cd]pyrazol-6(2H)-one]
- expression of Colla1, Colla2 and Fn1 [1]: significantly lowered
- expression of Mlc-2a, NppA and NppB mRNAs [1]: significantly decreased
- cardiac expression of Mlc-2a, NppA, Colla1 and Colla2 mRNAs [1, 2]: significantly reduced
- LVEDD compared to DMSO-treated mice (Lmna^H222P/H222P mice; [3]): not significantly different
- LVESD compared to DMSO-treated mice (Lmna^H222P/H222P mice; [3]): significantly smaller; also recorded: statistically significant reduction
- EF (Lmna^H222P/H222P mice; [4]): 61.88%±1.66%
- FS and EF (Lmna^H222P/H222P mice; 20 weeks of age): increased
- EF (Lmna^H222P/H222P mice; [5]): 61.88 ± 1.66 %
- FS (Lmna^H222P/H222P mice; [5]): 33.11 ± 1.16 %
- LVEDD (Lmna^H222P/H222P mice; [5]): 3.73 ± 0.08 mm
- LVESD (Lmna^H222P/H222P mice; [5]): 2.67 ± 0.10 mm
- EF (Lmna^H222P/H222P mice; [6]): 61.88 ± 8.46 %
- FS (Lmna^H222P/H222P mice; [6]): 33.11 ± 5.92 %
- IVSD (Lmna^H222P/H222P mice; [6]): 0.63 ± 0.07 mm
- LVEDD (Lmna^H222P/H222P mice; [6]): 3.73 ± 0.42 mm
- LVESD (Lmna^H222P/H222P mice; [6]): 2.67 ± 0.49 mm
- LVPW (Lmna^H222P/H222P mice; [6]): 0.66 ± 0.09 mm
- HR (Lmna^H222P/H222P mice; [7]): 363 beats per minute
- further deterioration in cardiac function (Lmna^H222P/H222P mice): prevented further deterioration

SMILES: COc1cccc(-c2cc(=O)c3ccccc3o2)c1N [PD98059, 2-(2-amino-3-methoxyphenyl)-4H-1-benzopyran-4-one]
- expression of Colla1, Colla2 and Fn1 [1]: significantly lowered
- expression of Mlc-2a, NppA and NppB mRNAs [1]: significantly decreased
- expression of Elk1, Elk4, Atf2 and Atf4 ([1]; hearts at 16 weeks, treated 8 to 16 weeks): decreased expression
- cardiac expression of Mlc-2a, NppA, Colla1 and Colla2 mRNAs [1, 2]: significantly reduced
- cardiac expression of NppB mRNA [1, 2]: significantly reduced
- LVEDD compared to DMSO-treated mice (Lmna^H222P/H222P mice; [3]): not significantly different
- increase of EF compared to the DMSO-treated group (Lmna^H222P/H222P mice; [3]): approximately 22%
- LVESD compared to DMSO-treated mice (Lmna^H222P/H222P mice; [3]): significantly smaller; also recorded: statistically significant reduction
- EF (Lmna^H222P/H222P mice; [4]): 65.46%±2.64%
- FS and EF (Lmna^H222P/H222P mice; 20 weeks of age): increased
- EF (Lmna^H222P/H222P mice; [5]): 65.46 ± 2.64 %
- FS (Lmna^H222P/H222P mice; [5]): 35.91 ± 1.88 %
- LVEDD (Lmna^H222P/H222P mice; [5]): 3.55 ± 0.11 mm
- LVESD (Lmna^H222P/H222P mice; [5]): 2.41 ± 0.11 mm
- EF (Lmna^H222P/H222P mice; [6]): 65.46 ± 11.49 %
- FS (Lmna^H222P/H222P mice; [6]): 35.91 ± 8.21 %
- IVSD (Lmna^H222P/H222P mice; [6]): 0.66 ± 0.05 mm
- LVEDD (Lmna^H222P/H222P mice; [6]): 3.55 ± 0.50 mm
- LVESD (Lmna^H222P/H222P mice; [6]): 2.41 ± 0.50 mm
- LVPW (Lmna^H222P/H222P mice; [6]): 0.69 ± 0.08 mm
- HR (Lmna^H222P/H222P mice; [7]): 350 beats per minute
- further deterioration in cardiac function (Lmna^H222P/H222P mice): prevented further deterioration
